# Source: publication PMC8868285, “Pharmacological Inhibition of Epac1 Averts Ferroptosis Cell Death by Preserving Mitochondrial Integrity” (Antioxidants, 2022)
# Test system: isolated mitochondria from HT-22 cells
# Experiment: High-resolution respirometry (Oroboros) of isolated mitochondria
# Parameters: species or system mouse
# Procedure: Mitochondria were isolated from harvested HT-22 cells (4–8 × 10^7 cultivated in T75 flasks) using a semi-automated pump-controlled cell rupture system (PCC) (0.71 mL/min) with syringes (SGE, Trajan© Scientific, Ringwood, Australia) attached to a cell homogenizer (Isobiotech, EMBL, Heidelberg, Germany) (bead size of 10 μm suitable for HT-22 cells) and superimposed on a pump (ProSense B.V, Oosterhout, The Netherlands, #NE1000). Collected samples were centrifuged at 800 rpm for 10 min at 4 °C. The supernatant was further centrifuged at 9000× g for 10 min at 4 °C. The resulting pellet was the crude mitochondria. Finally, the mitochondria were suspended in an isolation buffer (HEPES 20 mM, sucrose 250 mM EDTA 3 mM, pH 7.5) for subsequent experiments. The whole procedure was executed on ice.
# The protein concentration of isolated mitochondria was determined using the Pierce™ BCA Protein Assay Kit (Pierce™ BCA Protein Assay Kit, Thermo Scientific, Rockford, IL, USA, #23225). Respiration of the isolated mitochondria from HT-22 cells was analyzed using the high-resolution respirometry oxygraph O2K (Oroboros Systems, Innsbruck, Austria). The isolated mitochondria (200 μg) prepared as previously described, were treated with either CE3F4, ESI-05, ethanol, or DMSO as appropriate for 25 min, followed by mitochondrial respiration measurements. Mitochondrial state 1 was determined by continuous stirring at 750 rpm in 1 mL of MiR05 buffer (MgCl2 3 mM, lactobionic acid 60 mM, EGTA 0.5 mM taurine 20 mM, KH2PO4 10 mM, D-Sucrose 110 mM, HEPES 20 mM, BSA, essential fatty acid-free1 g/L, pH adjusted to 7.4). DatLab software (Oroboros Systems, Innsbruck, Austria) was used to record real-time oxygen flux per tissue mass (pmol O2. s^−1 × mg^−1) at 37 °C and to perform oxygen polarography. States were described as, State 2: a non-phosphorylating respiration state which was assessed by addition of complex-I linked substrates, 5 mM pyruvate (Sigma–Aldrich Chemie GmbH, Steinheim, Germany #P-2256), and 2 mM malate (Sigma–Aldrich Chemie GmbH, Steinheim, Germany, #374318); State 3: the oxidative-phosphorylation capacity (OXPHOS) state, of complex-I linked activity or basal respiration was achieved by adding a saturating concentration of 0.8 mM ADP (Sigma–Aldrich Chemie GmbH, Steinheim, Germany, #A5285), this allowed for calculation of ADP-coupled repiration; State 4: Achieved by subsequent addition of oligomycin 0.1 μM/mL (Sigma–Aldrich Chemie GmbH, Steinheim, Germany, #O4876) following state 3, oligomycin blocks the ATP-synthase, thereby inhibiting proton passage; State 3U: Was assessed by incremental steps of 1 μM addition of FCCP—theprotonophore carbonyl cyanide 4-(trifluoromethoxy) phenylhydrazone (Sigma–Aldrich Chemie GmbH, Steinheim, Germany, #C2920), this allowed the calculation of the reserve capacity of the Electron Transport Chain (ETC); Finally, sodium dithionite (DTT, Sigma–Aldrich Chemie GmbH, Steinheim, Germany, #15,795-3) was added to reduce all residual oxygen that was present in the chamber and to calibrate the oxygen content in the chamber. The O2 slope (pmol × (mL/s)) of isolated mitochondria was the oxygen concentration and also the initial derivate of the oxygen concentration—a derivative of oxygen consumption. Measurements were recorded in intervals of 2 s by using a background correction after calibration of the polarographic oxygen sensors.
structure (smiles),measurement,setting,value
CC1CCc2c(cc(Br)c(F)c2Br)N1C=O (stereo not drawn) [CE3F4],ADP-coupled respiration,30 μM CE3F4,no significant differences
same,ADP-coupled respiration,100 µM CE3F4,no significant differences
same,"mitochondrial respiration states (2, 3, 4, 3U)","CE3F4 30 μM and 100 μM, 25 min",no significant effect on any mitochondrial respiration states
